Measurements as given in PMC9952331, “Ethyl Gallate Isolated from Castanopsis cuspidata var. sieboldii Branches Inhibits Melanogenesis and Promotes Autophagy in B16F10 Cells” (Antioxidants, 2023).
In brackets after ≈: the same amount, converted by molar mass.

Experiments:
mushroom tyrosinase [1] = assay: cell-free tyrosinase inhibition assay with L-tyrosine substrate, absorbance at […] nm; assay type: biochemical
mushroom tyrosinase [2] = assay: enzyme kinetics with L-DOPA substrate, Lineweaver-Burk plot; IC50 […] also reported; assay type: biochemical

| IC50 (mushroom tyrosinase [1]) [µg/mL] | Ki (mushroom tyrosinase [2]) [µM] | Structure (SMILES) |
| --- | --- | --- |
| 30.99 ± 0.86 (≈ 176 µM) | – | O=C1O[C@H]([C@@H](O)CO)C(O)=C1O [ascorbic acid] |
| – | 434 | CCOC(=O)c1cc(O)c(O)c(O)c1 [Compound 1, ethyl gallate] |
